The text below walks through data of PMC8558150 (Acta Pharmaceutica Sinica. B, 2021).

Read-outs that look alike come from different tables or passages of the source. Peptide text beside a SMILES is read from it.

Test [1] addresses T1, SARS CoV-2 M^pro (Severe acute respiratory syndrome coronavirus 2, UniProt P0DTD1). In kind it is cell-based.
Test [2] deals with T1, SARS CoV-2 M^pro. The class given is biochemical.
The subject of another test is SARS-CoV-2. Particulars: read-out: EC50, secondary viral yield reduction assay; Vero E6 cells; cited from earlier work.
Test [3] concerns SARS-CoV-2 (isolate USA-WA1/2020). The test can be described thus: Antiviral immunofluorescence assay in Calu-3 cells. The class given is cell-based. The settings on record: read-out: Antiviral EC50 in Calu-3 cells.
The subject of a further test is cathepsin L. The settings on record: read-out: cathepsin L IC50; cited from earlier work.
The next test addresses SARS-CoV-2 M^pro. Particulars: cited from earlier work; for IC50: read-out: FRET IC50.
In test [4] the target is T1, SARS CoV-2 M^pro. The settings on record: cited from earlier work.
In another test the test system is SARS-CoV M^pro. Particulars: read-out: SARS-CoV M^pro IC50; cited from earlier work.
Test [5] concerns the target T1, SARS CoV-2 M^pro. The test can be described thus: Thermal shift assay. In kind it is binding.

For orientation: EC50 means the concentration at which the effect is half-maximal. As usually defined, the IC50 is the concentration that inhibits the measured activity by half. Usually Ki stands for a measure of affinity in units of concentration, obtained from inhibition or displacement.

For `CCC(C)SSc1ncc[nH]1` (centres unmarked) [PX-12], the “result in FlipGFP assay (in words)” value on SARS CoV-2 M^pro [1] was “no inhibitory activity”. Moreover, at SARS CoV-2 M^pro [2], the “result in Protease-Glo luciferase assay (in words)” value is “no inhibitory activity”.
Take `COC(=O)N[C@H](C(=O)N[C@@H](Cc1ccccc1)[C@@H](O)CN(Cc1ccc(-c2ccccn2)cc1)NC(=O)[C@@H](NC(=O)OC)C(C)(C)C)C(C)(C)C` [atazanavir]: the “result in FlipGFP assay (in words)” value on SARS CoV-2 M^pro [1] is listed as “not conclusive”.
Turning to `O=c1cc(-c2ccccc2)oc2cc(O)c(O)c(O)c12` [baicalein], the “result in FlipGFP assay (in words)” value on SARS CoV-2 M^pro [1] is given as “no inhibition”. In addition, the “result in Protease-Glo luciferase assay (in words)” value on SARS CoV-2 M^pro [2] is “no inhibition”.
On to `CC(C)(C)NC(=O)N[C@H](C(=O)N1C[C@H]2[C@@H]([C@H]1C(=O)NC(CC1CCC1)C(=O)C(N)=O)C2(C)C)C(C)(C)C` (some centres unmarked) [boceprevir], for which, in the test with SARS-CoV-2, the EC50 is 1.95 µM.
On to `CSCC[C@@H](C=O)NC(=O)[C@H](CC(C)C)NC(=O)[C@H](CC(C)C)NC(C)=O` [calpain inhibitor II] (Ac-Leu-Leu-Met-aldehyde), for which the EC50 in test [3] worked out at 30.3 µM. For the same compound, the IC50 with cathepsin L was 0.00041 µM.
For the compound `CCCC(NC(=O)C(CC(C)C)NC(=O)OCc1ccccc1)C(=O)C(=O)NCc1ccccn1` (centres unmarked) [calpain inhibitor XII], the EC50 in test [3] came out at 14.8 µM. In addition, the IC50 with cathepsin L was 0.00162 µM.
Consider `CCOc1nc2cccc(C(=O)O)c2n1Cc1ccc(-c2ccccc2-c2nnn[nH]2)cc1` [candesartan], for which, on SARS-CoV-2 M^pro, the Ki was 0.18 ± 0.02 µM and the IC50 was 2.8 ± 0.3 µM.
For the compound `CCCCCCNC(=O)n1cc(F)c(=O)[nH]c1=O` [carmofur], at SARS CoV-2 M^pro [1], the “result in FlipGFP assay (in words)” value was “no inhibitory activity”. The “result in Protease-Glo luciferase assay (in words)” value on SARS CoV-2 M^pro [2] is on record as “no inhibitory activity”.
For the compound `CCN(CC)CCCC(C)Nc1ccnc2cc(Cl)ccc12` (centres unmarked) [chloroquine], the Ki on SARS-CoV-2 M^pro is 0.56 ± 0.12 µM.
For `CC(C)c1nc(CN(C)C(=O)N[C@@H](CCN2CCOCC2)C(=O)N[C@H](CC[C@H](Cc2ccccc2)NC(=O)OCc2cncs2)Cc2ccccc2)cs1` [cobicistat], the “result in FlipGFP assay (in words)” value on SARS CoV-2 M^pro [1] is listed as “not conclusive”.
As to `CCN(CC)C(=S)SSC(=S)N(CC)CC` [disulfiram], on SARS CoV-2 M^pro [1], the “result in FlipGFP assay (in words)” value is recorded as “no inhibition”. At SARS CoV-2 M^pro [2], the “result in Protease-Glo luciferase assay (in words)” value is listed as “no inhibition”.
Regarding `O=c1c2ccccc2[se]n1-c1ccccc1` [ebselen], at SARS CoV-2 M^pro [1], the “result in FlipGFP assay (in words)” value is given as “no inhibition”. In addition, the “result in Protease-Glo luciferase assay (in words)” value at SARS CoV-2 M^pro [2] is “no inhibition”. Also, at SARS CoV-2 M^pro [4], the “M^pro inhibition in FRET assay in the presence of DTT or GSH (in words)” value is listed as “completely lost the M^pro inhibition”.
Take `Cc1cccc(C)c1OCC(=O)N[C@@H](Cc1ccccc1)[C@@H](O)C[C@H](Cc1ccccc1)NC(=O)[C@H](C(C)C)N1CCCNC1=O` [lopinavir]: the “result in FlipGFP assay (in words)” value on SARS CoV-2 M^pro [1] is “not conclusive”. Further, the “result in Protease-Glo luciferase assay (in words)” value at SARS CoV-2 M^pro [2] is listed as “not active”. In addition, the IC50 with SARS-CoV M^pro is 50 µM.
In the case of `COC(=O)C1=C(C)NC(C)=C(C(=O)OCCN2CCN(C(c3ccccc3)c3ccccc3)CC2)C1c1cccc([N+](=O)[O-])c1` (centres unmarked) [manidipine], on SARS CoV-2 M^pro [5], the “binding to M^pro in thermal shift assay (in words)” value is reported as “did not show binding”. Moreover, the “result in FlipGFP assay (in words)” value at SARS CoV-2 M^pro [1] is reported as “no activity”. The “result in Protease-Glo luciferase assay (in words)” value on SARS CoV-2 M^pro [2] was “no activity”. For the same compound, in the test on SARS-CoV-2 M^pro (in the presence of 0.05% Tween-20), the IC50 was above 100 µM.
Turning to `Cc1c(O)cccc1C(=O)N[C@@H](CSc1ccccc1)[C@H](O)CN1C[C@H]2CCCC[C@H]2C[C@H]1C(=O)NC(C)(C)C` [nelfinavir], on SARS CoV-2 M^pro [1], the “result in FlipGFP assay (in words)” value is “not conclusive”.
`CN(C)[C@@H]1C(O)=C(C(N)=O)C(=O)[C@@]2(O)C(O)=C3C(=O)c4c(O)cccc4[C@@](C)(O)[C@H]3[C@H](O)[C@@H]12` [oxytetracycline]: the Ki at SARS-CoV-2 M^pro is 0.99 ± 0.06 µM.
As for `CC(C)c1nc(CN(C)C(=O)N[C@H](C(=O)N[C@@H](Cc2ccccc2)C[C@H](O)[C@H](Cc2ccccc2)NC(=O)OCc2cncs2)C(C)C)cs1` [ritonavir], on SARS CoV-2 M^pro [1], the “result in FlipGFP assay (in words)” value is reported as “not active”. Besides, the “result in Protease-Glo luciferase assay (in words)” value on SARS CoV-2 M^pro [2] is on record as “not active”.
Consider `CC(C)=CC[C@@H](O)C1=CC(=O)c2c(O)ccc(O)c2C1=O` [shikonin], for which the “result in FlipGFP assay (in words)” value on SARS CoV-2 M^pro [1] is “no inhibition”. Besides, the “result in Protease-Glo luciferase assay (in words)” value at SARS CoV-2 M^pro [2] is reported as “no inhibition”. Besides, the “M^pro inhibition in FRET assay in the presence of DTT or GSH (in words)” value on SARS CoV-2 M^pro [4] is on record as “no inhibition”.
On to `CCC[C@H](NC(=O)[C@@H]1[C@H]2CCC[C@H]2CN1C(=O)[C@@H](NC(=O)[C@@H](NC(=O)c1cnccn1)C1CCCCC1)C(C)(C)C)C(=O)C(=O)NC1CC1` [telaprevir], for which the “inhibition in FRET assay” value at SARS CoV-2 M^pro [4] (at 20 μmol/L) is recorded as 31%.
As to `O=c1sn(-c2cccc3ccccc23)c(=O)n1Cc1ccccc1` [tideglusib], the “result in FlipGFP assay (in words)” value on SARS CoV-2 M^pro [1] is reported as “no inhibitory activity”. For the same compound, the “result in Protease-Glo luciferase assay (in words)” value at SARS CoV-2 M^pro [2] was “no inhibitory activity”.
